Laboratory results reported in patent US20200115698A1, “PHARMACEUTICAL COMBINATION FOR TREATMENT OF FABRY DISEASE AND USE THEREOF” (MEIJI PHARMACEUTICAL UNIVERSITY, priority 2017, published 2020).

Tests used:
[1] = molecular target: T1, α-NAGA mutant (SEQ ID NO:8) (Homo sapiens, UniProt P17050, A191L/S188E); test: Screening of inhibitor (1): remaining enzyme activity of α-NAGA mutant with 4-methylumbelliferyl α-D-galactopyranoside; assay type: biochemical; settings: 400 μM compound, pH 4.6, 37° C., 30 minutes
T1 sequence (P17050 with tags, fused parts or gaps S188E/A191L): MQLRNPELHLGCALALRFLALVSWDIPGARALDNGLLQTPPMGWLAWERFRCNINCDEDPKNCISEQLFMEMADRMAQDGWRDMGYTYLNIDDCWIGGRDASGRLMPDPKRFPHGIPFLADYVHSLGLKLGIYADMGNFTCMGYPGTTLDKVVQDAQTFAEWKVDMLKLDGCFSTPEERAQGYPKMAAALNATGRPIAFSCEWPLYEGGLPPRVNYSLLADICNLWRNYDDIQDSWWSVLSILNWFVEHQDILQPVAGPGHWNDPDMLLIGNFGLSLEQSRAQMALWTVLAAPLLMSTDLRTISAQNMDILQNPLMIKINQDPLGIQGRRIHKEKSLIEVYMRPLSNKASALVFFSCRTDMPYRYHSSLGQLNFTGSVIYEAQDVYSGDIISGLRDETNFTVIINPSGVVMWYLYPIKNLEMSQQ
Experimental: The screening of inhibitor was carried out as follows: An inhibitor candidate compound dissolved in purified water or DMSO was added to 20 ng of an α-NAGA mutant (SEQ ID NO:8) and 4 mM 4-methylumbelliferylα-D-galactopyranoside dissolved in 0.1 M phosphate-citrate buffer (pH 4.6) such that a concentration of the inhibitor candidate compound became 0.8, 1, or 400 μM, and the mixture thus obtained was caused to react at 37° C. for 30 minutes (the total amount was 50 μl). After the reaction, 950 μl of 0.2 M glycine buffer (pH 10.7) was added to stop the reaction. Then, released 4-methylumbelliferone was measured at an excitation wavelength of 355 nm and at a fluorescence wavelength of 460 nm with use of Wallac 1420 ARVO MX Multilabel Counter. Remaining enzyme activity was calculated based on the assumption that an enzyme activity value obtained in a case where purified water or DMSO is added instead of the inhibitor candidate compound is 100%.

[2] = molecular target: T2, α-NAGA mutant (Homo sapiens, UniProt P17050, A191L/S188E); test: Calculation of inhibition constant Ki (Lineweaver-Burk plot); assay type: biochemical; settings: substrate 1-8 mM; DGJ 100-400 nM, GBS 200-800 nM; pH 4.6; FIG. 2
T2 sequence (P17050 with tags, fused parts or gaps S188E/A191L): T1 sequence (P17050 with tags, fused parts or gaps S188E/A191L)
Experimental: Enzymatic analysis was carried out by using, as a reaction liquid, 50 ng of an α-NAGA mutant and 0.1 M phosphate-citrate buffer (pH 4.6) in which a 4-methylumbelliferylα-D-galactopyranoside substrate was dissolved at any of concentrations (1, 2, 4, 6, and 8 mM) (the total amount was 50 μl). In measuring inhibitory activity, reaction was carried out with a reaction liquid which contained DGJ at a concentration of 100, 200, or 400 nM or GBS at a concentration of 200, 400, or 800 nM. After the reaction was carried out at 37° C. for 10 minutes, 950 μl of 0.2 M glycine buffer (pH 10.7) was added to stop the reaction. Then, released 4-methylumbelliferone was measured at an excitation wavelength of 355 nm and at a fluorescence wavelength of 460 nm with use of Wallac 1420 ARVO MX Multilabel Counter. From these values, a Lineweaver-Burk plot was prepared and an inhibition constant Ki was calculated from slopes in the plot which correspond to respective concentrations of the inhibitor.

inhibition effect on α-NAGA mutant (remaining enzyme activity) [1]: the inhibition effect was seen
SMILES: OCC1NCC(O)C(O)C1O [DGJ, (2R,3S,4R,5S)-2-(hydroxymethyl)piperdine-3,4,5-triol]
inhibition pattern from inhibition constant Ki [2]: inhibitory activity by competitive inhibition
